Source: US7780989B2, “Process for the preparation of crystalline nano-particle dispersions” (AstraZeneca AB, priority 2002, dated 2010)
Where two headings read alike, the source gives them in different places.

Test: Crystalline and amorphous solubility of the substance
Format: physicochemical
Details: water
Experimental: The solubility of the substance in water may be measured using a conventional technique. For example, a saturated solution of the substance is prepared by adding an excess amount of the substance to water at 25° C. and allowing the solution to equilibrate for 48 hours. Excess solids are removed by centrifugation or filtration and the concentration of the substance in water is determined by a suitable analytical technique such as HPLC. Without wishing to be bound by theory, it is thought that the formation of the initial suspension of amorphous particles following combination of the first solution with the aqueous phase promotes the subsequent formation of a uniform dispersion of nano-crystalline particles during the subsequent sonication. […] It is thought that the presence of the dispersion of amorphous particles during the sonication provides a reservoir of material in solution for the crystallisation step and thereby maintains a high and constant level of super-saturation relative to the crystalline solubility because of the higher amorphous solubility. The high and relatively constant degree of supersaturation provided by the presence of the amorphous particles provides favorable conditions for the formation of a large number of primary nuclei upon application of the ultrasound to the dispersion of amorphous particles. […]

In the case of `CCOC(=O)C1=C(C)NC(C)=C(C(=O)OC)C1c1cccc(Cl)c1Cl` (centres unmarked) [felodipine], the solubility (25 °C, thermodynamic from solid, crystalline form, read-out: crystalline solubility) was 2 µM and the solubility (amorphous form, read-out: amorphous solubility) was about 24 µM.
